This note sets out measurements from patent publication US12421264B2 (INSTITUT NATIONAL DE LA RECHERCHE SCIENTIFIQUE, priority 2018, dated 2025).

For one data set, the system named is Staphylococcus aureus. The data set can be described thus: Bacterial survival assay (3 h), CFU counts. It counts as cell-based. Particulars: 50 μM, compared with N. meningitidis and N. gonorrhoeae. The protocol: (§1) Bacterial Survival Assay (3 h)
(§2) To measure bacterial survival (FIGS. 2 and 4), different bacteria were exposed to various concentrations of the compounds (as indicated) in their specific growth media (see the culture conditions above) for 3 h at 37° C. To perform this assay, all strains were grown overnight in their corresponding agar media. Cell-suspension corresponding to an OD600=0.05 were subsequently prepared. In parallel, fresh stock DMSO solutions of the compounds were prepared (100×, with final concentrations being indicated in the different figures) and 1.8 μL of the corresponding solutions were added per well of 96-well plates. In each well, 178.2 μL of bacterial suspension were subsequently added. Bacteria were allowed to grow during […] at 37° C. with 5% CO2. After incubation, serial dilutions (until 10^−6) were performed and 50 μL of each diluted solution were spread on agar plates. After an overnight incubation at 37° C. with/without 5% CO2, CFU were enumerated. All these assays were performed at least in triplicates.
(§3) To verify if the toxicity of BPh4^− is specific to the Neisseria genus, the percentage of survival of several Neisseria species was assessed after treatment with 50 μM of NaBPh4^− for 3 h (FIG. 4A). […] Other Gram-negative species such as Yersinia enterocolitica and Citrobacter rodentium (order Enterobacterales) or Moraxella catarrhalis (order Pseudomonadeles), but also Gram-positive species such as Staphylococcus aureus and Actinobacteria with M. smegmatis, were also tested.

The next data set has as its system Moraxella catarrhalis. Description: Bacterial survival assay (3 h), CFU counts. It is filed as cell-based. Conditions: 50 μM, compared with N. meningitidis and N. gonorrhoeae. The protocol: as §1, §2, §3
The test system of the next data set is Citrobacter rodentium. Description: Bacterial survival assay (3 h), CFU counts. Particulars: 50 μM, compared with N. meningitidis and N. gonorrhoeae. It counts as cell-based. The procedure: as §1, §2, §3
The next data set deals with M. smegmatis. The data set can be described thus: Bacterial survival assay (3 h), CFU counts. Particulars: 50 μM, compared with N. meningitidis and N. gonorrhoeae. It counts as cell-based. The procedure: as §1, §2, §3
For a further data set, the system named is Yersinia enterocolitica. The data set can be described thus: Bacterial survival assay (3 h), CFU counts. It is filed as cell-based. Conditions: 50 μM, compared with N. meningitidis and N. gonorrhoeae. The protocol:
as §1, §2, §3

A short description of data set [1]: Toxicity of NaBPh4 in mice. Particulars: mice treated with NaBPh4 (IV or IP). It counts as in vivo, Balb/c mice. The protocol: (§4) The strain LNP 24198 of Neisseria meningitidis expressing the luxCDABE gene under the control of the porBp promoter was used. Three groups, with five seven-week-old Balb/c mice each, were infected with luminescent Neisseria meningitidis. For this, 200 μL of bacterial cultures at OD600nm of 0.1 (5×10^7 cells/mL) mixed with 150 μL of human transferrin (20 mg/mL) was injected in each mouse. Two hours later, one group was treated with 100 μL of NaBPh4 (20 μM) injected into the tail veins by intravenous injection (IV), and one group was treated with the same dose injected by intraperitoneal injection (IP). The remaining five were treated with 100 μL of DMSO as controls. NaBPh4 was initially prepared at 20 mM in DMSO before being diluted into PBS to reach a final concentration of 20 μM (with 0.1% DMSO). DMSO was diluted in PBS in the same manner to achieve 1:1000. To test a possible toxicity of NaBPh4, one group of 5 non-infected mice was treated with 100 μL of DMSO (IP) and two groups with 100 μL NaBPh4 (IV or IP). Luminescence was then measured, on the front and back of the mice, at different time points (0, 4, 8, 24 and 48 hours post-infection). The light signal was determined for each mouse using the ROI (Region Of Interest) tool of the IVIS Lumina Ill.
(§5) The effect of NaBPh4 administration in a murine model of N. meningitidis infection was assessed.

A further data set deals with N. lactamica. The data set can be described thus: Bacterial survival assay (3 h), CFU counts. It counts as cell-based, Neisseria lactamica. The protocol:
as §1, §2
(§6) To verify if the toxicity of BPh4^− is specific to the Neisseria genus, the percentage of survival of several Neisseria species was assessed after treatment with 50 μM of NaBPh4^− for 3 h (FIG. 4A). […]

Another data set concerns N. meningitidis. Description: Bacterial survival assay (3 h), CFU counts. It is filed as cell-based, Neisseria meningitidis. The protocol: as §1, §2
(§7) Therefore, the bactericidal activity was assessed for the 4 compounds harboring a BPh4^− identified from the initial screen described above (AnIII-7, AnIII-6, AnII-18, NaBPh4). N. meningitidis was treated with 50 μM of each compound and the % survival cells (compared with DMSO 1% control) was measured using serial dilutions and CFU counts. […] To verify if the bactericidal effect could be observed for the other pathogen of the Neisseria family, a clinical isolate of. N. gonorrhoeae (LNP16626 [3]) was also treated with 50 μM of the same compounds, respectively, using the same assay.
(§8) The MBC (minimum bactericidal concentration that kill >99.999%), the concentration necessary to completely abrogate bacterial survival after a 3 h exposure to NaBPh4, was next assessed.

The next data set concerns N. elongata. Description: Bacterial survival assay (3 h), CFU counts. It is filed as cell-based, Neisseria elongata. The protocol:
as §1, §2, §6

Data set [2] concerns N. meninigitidis (LNP24198) expressing luciferase (LuxABCDE). Description: N. meningitidis luminescent strain growth assay (16 h). It counts as cell-based, Neisseria meningitidis. The protocol: N. meningitidis Luminescent Strain Growth Assay (16 h)
To perform the library screening (FIG. 1) or to compare the activity of the different boron-containing salts (FIG. 3), the amount of light produced after 16 h of growth for N. meningitidis luminescent strain was measured. Contrarily to optical density (OD) readings which can be misleading due to the absorbance of dead cells, this measurement is directly correlated to the number of live cells, as the half-life of the luciferase and its substrate are limited and that the emission of light is therefore not subsisting after the death of the cells. To perform this assay, N. meninigitidis (LNP24198) expressing luciferase (LuxABCDE) was grown overnight under the control of the constitutive promoter porBp in GCB agar media, and a cell-suspension corresponding to an OD600=0.01 was subsequently prepared. In parallel, fresh stock DMSO solutions of the compounds were prepared (100×, with final concentrations being indicated in the different figures) and 1.8 μL of the corresponding solutions were added per well of 96-well plates. In each well, 178.2 μL of bacterial suspension were subsequently added. Bacteria were allowed to grow during 16 h at 37° C. with 5% CO2. The emitted light was measured using a 96-well plate luminometer (PerkinElmer Wallac 1420 Victor^3) and results are expressed in relative light unit (RLU). All these assays were performed at least in triplicates.
To screen molecules for their antibacterial activity, a luminescent system was used, as previously described for other bacteria. A clinical isolate of N. meninigitidis (LNP24198) expressing luciferase (LuxABCDE) under the control of the constitutive promoter porBp was used, as similarly described, located in the intergenic region next to NMB1732. More than 2400 compounds from different origins were screened to identify candidates with the ability to inhibit the growth of N. meningitidis after 16 h at 37° C. […] It is noteworthy that stock solutions for all tested compounds were prepared in DMSO and that the final DMSO concentration of the tested solutions was kept at 1%, a concentration which has proven not to affect the growth of N. meningitidis (FIG. 1A). […] An investigation of the effect of the BPh4^− moiety was then pursued.
To exclude any salt-specific effect, the effect of several BPh4^− and BF4^− salts on the growth of N. meningitidis luminescent strain was tested. The growth of N. meningitidis was measured after a 16 h-exposure to different concentrations of various BPh4^− and BF4^− salts. From this assay, the MIC (minimum inhibitory concentration, the lowest concentration that prevents visible bacterial growth, <800 RLU) was calculated. All BPh4 salts tested (sodium, ammonium and potassium) were all highly toxic for N. meningitidis.
Several borate compounds were prepared and their ability to inhibit N. meningitidis growth was assessed using the luminescent system described at Example 2.

Another data set concerns N. sicca. Description: Bacterial survival assay (3 h), CFU counts. It is filed as cell-based, Neisseria sicca. Conditions: 50 μM, compared with N. meningitidis and N. gonorrhoeae. The protocol: as §1, §2, §6
Data set [3] deals with N. gonorrhoeae (LNP16626). Description: Bacterial survival assay (3 h), CFU counts. It counts as cell-based, Neisseria gonorrhoeae. The protocol:
as §1, §2, §7, §8

Data set [4] relates to N. meningitidis (strain LNP 24198, luminescent). The data set can be described thus: Mice infection with luminescent N. meningitidis. It counts as in vivo, Balb/c mice. Particulars: IV or IP administration 2 h after infection, 24 h and 48 h post-infection, relative to vehicle (DMSO). The procedure:
as §4, §5

[5] abbreviates: 50 μM, 3 h, compared with N. meningitidis and N. gonorrhoeae.

Structures are written as SMILES.

Broadly, the MIC is the lowest concentration that inhibits growth of the organism. Read a high MIC as weaker potency. Take `[Na+].c1ccc([B-](c2ccccc2)(c2ccccc2)c2ccccc2)cc1` [Compound 1, Sodium tetraphenylborate]: the “survival of Staphylococcus aureus” value in the data set with Staphylococcus aureus is “significantly more resistant”. Also, the “survival of Moraxella catarrhalis” value in the data set on Moraxella catarrhalis was “significantly more resistant”. Moreover, the “survival of Citrobacter rodentium” value in the data set on Citrobacter rodentium is listed as “significantly more resistant”. Also, the “survival of M. smegmatis” value in the data set with M. smegmatis was “significantly more resistant”. In the data set on Yersinia enterocolitica, the “survival of Yersinia enterocolitica” value is recorded as “significantly more resistant”. In data set [1], the “sign of toxicity in mice” value is recorded as “No apparent sign of toxicity”. In addition, the “survival of N. lactamica” value in the data set with N. lactamica (setting [5]) is “not as sensitive”. Besides, the “MBC (minimum bactericidal concentration that kill >99.999%)” value is “higher than 200 μM” with N. lactamica (N. lactamica, 3 h exposure); 18 µM against N. meningitidis (N. meningitidis, 3 h exposure); “higher than 200 μM” with N. elongata (N. elongata, 3 h exposure); 7.5 µM in data set [3] (N. gonorrhoeae, 3 h exposure). Also, the “survival of N. meningitidis” value with N. meningitidis (50 μM, 3 h, CFU counts vs DMSO 1% control) is reported as “the detection of any live bacteria was not possible”. Moreover, the “survival of N. elongata” value with N. elongata (setting [5]) was “less sensitive”. In addition, in [2] (100 μM, 16 h at 37° C., 1% DMSO), the “inhibition of the growth of N. meningitidis (library screening)” value is listed as “active”. This molecule registered an MIC in data set [2] (Neisseria meningitidis, 16 h) of 15 µM. In the data set on N. sicca, the “survival of N. sicca” value is listed as “less sensitive”. In addition, the “survival of N. gonorrhoeae” value in [3] (50 μM, 3 h, CFU counts) is “no viable cells were detected”. Besides, the “N. meningitidis bacterial load (luminescence)” value in data set [4] is reported as “significantly reduces”.
